{"source": "patent US20100233241A1", "about": "“OPHTHALMIC DRUG DELIVERY SYSTEM AND APPLICATIONS” (VISTA SCIENTIFIC LLC, priority 2009, published 2010)", "key": {"[1]": {"assay": "ciprofloxacin drug release from ocular device in Purilens Plus buffer, UV spectroscopy", "assay_type": "physicochemical", "procedure": "The following details the method utilized to monitor ciprofloxacin drug release from an ocular device of this example. Solutions of ciprofloxacin, in a concentration range of 5 ppm to 1,000 ppm, were prepared in Purilens Plus buffer (Purilens Plus is a preservative-free pH-balanced saline solution manufactured by The Lifestyle Company). A UV scanning spectrophotometer was utilized to generate a calibration curve of peak absorbance (λmax=272 nm) versus concentration, in gm/100 ml, of ciprofloxacin.\nA device from this example weighing between 100 and 150 mg was placed in a 4 ml vial. To the vial was added 3.0 ml of Purilens Plus buffer. After 24 hours at 37° C., the sample was removed and placed in another 4 ml vial and covered with 3.0 ml of fresh Purilens Plus buffer. The 24-hour release vial was capped, labeled and held for analysis. This procedure was repeated four more times to obtain 1-, 2-, 3-, 4- and 5-day release data. The sampling interval was then expanded to every 3 to 5 days and so on. The release study was carried out for a total of 60 days.\nThe drug release samples were analyzed by UV spectroscopy and absorbance readings converted to weight of drug via the calibration curve."}, "[2]": {"assay": "timolol drug release from ocular device in Unisol 4 buffer, UV spectroscopy", "assay_type": "physicochemical", "conditions": "Example 11 polymer matrix with dissolved timolol free base; release study 90 days, 37° C., Unisol 4 buffer (FIG. 16)", "procedure": "The following details the method utilized to monitor timolol drug release from an ocular device of this example. Solutions of timolol maleate, in a concentration range of 5 ppm to 1,000 ppm, were prepared in Unisol® 4 buffer (Unisol® 4 is a preservative-free pH-balanced saline solution manufactured by Alcon Laboratories). A UV scanning spectrophotometer was utilized to generate a calibration curve of peak absorbance (λmax=294 nm) versus concentration, in gm/100 ml, of timolol maleate. A calibration curve for timolol free base was then generated. A device weighing between 100 and 150 mg was placed in a 4 ml vial. To the vial was added 2.0 ml of Unisol® 4 buffer. After 24 hours at 37° C., the sample was removed and placed in another 4 ml vial and covered with 2.0 ml of fresh Unisol® 4 buffer. The 24-hour release vial was capped, labeled and held for analysis. This procedure was repeated four more times to obtain 1-, 2-, 3-, 4- and 5-day release data. The sampling interval was then expanded to every 3 to 5 days and so on. The release study was carried out for a total of 90 days. The drug release samples were analyzed by UV spectroscopy and absorbance readings converted to weight of drug via the calibration curve. A plot of cumulative weight, in micrograms, of drug released versus time was generated."}}, "data": [{"molecule": "O=C(O)c1cn(C2CC2)c2cc(N3CCNCC3)c(F)cc2c1=O", "note": "[ciprofloxacin]", "values": [{"measurement": "amount of ciprofloxacin released", "setting": "[1]; 60 days release study, 37° C., Purilens Plus buffer, Example 12 hydrogel device, initial loading about 8.67 mg", "result": 4.74, "unit": "mg"}, {"measurement": "ciprofloxacin released, share of initial loading", "setting": "[1]; in the 60 days, 4.74 mg of about 8.67 mg loading", "result": 55, "unit": "%"}]}, {"molecule": "CC(C)(C)NC[C@H](O)COc1nsnc1N1CCOCC1", "note": "[timolol]", "values": [{"measurement": "timolol release from device", "setting": "[2]", "result": "releases timolol in a controlled manner over several months"}]}]}
